# Columns and labels:
# Format in all cases: in vivo, Drosophila
# Futsch = test: Quantitative Western analysis of Futsch protein in fly head lysates; settings: flies raised on LF with drug at effective dosage
# Excerpt: FIG. 3A illustrates a representative Western blot showing Futsch expression in w^1118, dfmr1^3+/−, and dfmr1^3−/− head lysates. Flies were raised on LF with or without drug supplements using the effective dosages. Heads from 0- to 2-day old adult flies were used to prepare protein lysates. β-actin was used as a loading control.
# FIG. 3B illustrates the quantification of relative Futsch protein level from multiple Western blots using Kodak Imaging System software. The quantifications were based on duplicate Western analyses obtained from triplicate collections of […] from two separate drug treatments (6 sets of samples total). The futsch levels were first normalized to β-actin levels, then plotted as the percentage of change of each treatment/genotype compared to w^1118 (no drug), which was set as 100%.
# Additionally, it was tested whether the same four compounds could rescue the biochemical phenotype of Futsch over-expression that is associated with dfmr1 deficiency. The mRNA of Futsch is normally bound and translationally repressed by dFmrp. Thus, loss of dFmrp results in excess Futsch translation.
# Quantitative Western analyses were performed. Briefly, 0- to 2-day-old adult Drosophila heads were obtained, and homogenized in lysis buffer (10 mM Tris (pH 7.5), 150 mM NaCl, 30 mM EDTA (pH 8.0), 0.5% Triton X-100, and 1× complete protease inhibitor (Boehringer Mannheim). 30 fly heads were collected per sample. 10 μg total protein lysates were subjected to SDS-PAGE electrophoresis on a 4%-20% gradient Tris-HCl gel (Bio-Rad). Monoclonal anti-22C10 against Futsch (1:500) was purchased from the Developmental Studies Hybridoma Bank (DSHB), University of Iowa. For the loading control, an antibody against […] (Abcam) was used at a final concentration of 0.8 μg/ml. The signals were quantified using the Kodak Imaging System software.
# [1] = tested on: mushroom body structure in dfmr1 null fly brain; test: Staining and analysis of mushroom body morphology; settings: for mushroom body defects of dfmr1 mutant adults (in words): 0- to 2-day-old adults developed on LF supplemented with drug at optimal viability dose; for brain structural abnormality (mushroom body formation) in treated dFmr1 flies (in words) / percentage of normal brains (mushroom body) after treatment: Example 2; for percentage of normal brains (mushroom body) after treatment: dFmr1 flies, 27% without treatment
# Excerpt: A striking morphological phenotype of dfmr1 deficiency in Drosophila involves structural abnormalities of the mushroom body in the fly brain. The mushroom body, important for Drosophila learning and memory, is an axon-like fiber structure composed of three paired neuronal lobes (the α, β, and γ lobes). In dfmr1 null flies, the β lobes, which normally terminate at the midline cleft, often cross through the midline. In addition, dfmr1 null flies also have missing or misdirected α and β lobes, as well as truncated or over-branched lobes. […] To test whether compounds identified in the viability screen could rescue the mushroom body morphology, 0- to 2-day-old dfmr1 mutant adults were examined that developed on LF supplemented with four of the nine compounds identified above (GABA, nipecotic acid, creatinine, and isopilocarpine).
# Brains from 0- to-2-day-old adults were dissected, fixed, and stained. Anti-Fascicilin II (ID4, Developmental Studies Hybridoma Bank) was used at 1:10 dilution and Alexa anti-mouse secondary antibody (Molecular probes) 1:100. Confocal microscopy was performed using a Leica Scanning laser confocal microscope. Neuronal lobe abnormalities were analyzed and scored by obtaining optical stacks of the α and β lobes as described.
# [2] = tested on: homozygous dfmr1-deficient flies; test: Fly viability assay: rescue of homozygous dfmr1 flies on CF (JAZMIX) plus drug; settings: for recovery of homozygous dFmr1 flies: 0% on JAZMIX food alone
# Description: In particular, embodiments of the present disclosure include methods of screening compounds using a drosophila (fruit fly) based compound screen to identify drug candidates for the treatment of FMRP-loss related disorders.
# The homozygous embryos are placed into an appropriate container (e.g., a 96-well container) containing a food with a lethal amount of glutamate and with or without a compound from a library of drugs candidates. The embryos were incubated at certain conditions for a certain amount of time (e.g., at about 25° C. for about 10 days) to allow embryonic development. The efficacy of the drug candidate is determined by scoring the number of pupae formation or the emergence of adult flies after a certain time frame. Files or pupae that came out from food with a nonlethal amount of glutamate were used as positive control, and flies or pupae that came out from food with lethal amounts of glutamate without drugs were used as negative control.
# The separated homozygous embryos are then transferred to a regular fly culture vials or a 96-well container (e.g., 20 embryos per well) containing food with a lethal amount of glutamate with or without the drug (e.g., 300 μl of pre-mixed food and the drug). The embryos were incubated at 25° C. for about 10 days to allow embryonic development. The formation of pupae or adult flies can be directly quantified by visual inspection. Efficacy of drugs is determined by scoring the number of pupae formation or the emergence of adult flies after 10 days. Additional details regarding the active compositions and disorders are described in the Examples below.
# (§1) To determine the cause of the observed CF lethality of dfmr1-deficient flies, HPLC amino acid analyses was performed on aqueous extracts of CF and LF food preparations and noted that the CF contained 1.8-fold more glutamate than the LF (FIG. 4). Since this could result in excess glutamate signaling, exacerbating the consequences of dFmrp loss, it was next determined whether supplementing LF with additional glutamate could decrease the viability of dfmr1-deficient flies. […] Indeed, 10 μM MPEP added to the CF rescued the homozygous deficient flies to approximately 60% of their normal viability on LF (FIG. 1C).
# Fifteen of those compounds, as well as the MPEP-positive control, recovered pupal development from at least 25% of the seeded embryos (FIG. 5, Table 1). Each of these top 15 compounds underwent further validation using a larger-scale viability assay. Each vial was seeded with 100 embryos from dfmr1 heterozygous crosses, and adult progeny of both homozygous and heterozygous genotypes were counted 10 days later. Nine of the 15 compounds were validated and, for each of these, a dose-response analysis was performed to optimize the dosage (FIG. 5, Table 1). Using the optimal viability dose for each validated compound, it was explored whether other established phenotypes of dfmr1 deficiency are influenced by a selection of these compounds.
# (§2) For the initial screen, 12 dfmr13/dfmr13 (GFP−) embryos were placed in each well of a 96 well plate with CF+40 μM of individual drugs. 96-well plates were kept at 25° C. and the percentage of pupae and adults recovered was scored. […] Adult progeny were counted and the relative viability of homozygous null flies was scored as the percentage of viable adult progeny raised on CF+ drug compared to the progeny on LF alone.
# dfmr1 null embryos = test: Initial small molecule screen: pupae/adult recovery of dfmr1 null embryos on commercial food (CF); settings: 12 null embryos per vial, CF supplemented with 40 μM compound, 25° C., 10 to 15 days
# Excerpt: Since the rescue of dfmr1 null lethality is an easily scored phenotype, a relatively high throughput strategy was designed to screen chemical libraries for small molecules that can restore the viability of dfmr1 null flies raised on CF (FIG. 1D). In order to seed test vials with dfmr1 null embryos only, the dfmr1 mutation was balanced with a GFP-TM6C chromosome (w^1118; dfmr1^3/Kr: GFP, TM6C). This allowed sorting of the null dfmr1 mutants from other embryos by the absence of GFP fluorescence using a flow cytometry embryo sorter (COPAS SELECT). […]
# The Spectrum Collection™ compound library was obtained from MicroSource Discovery Systems, Inc. Drugs used in larger quantities for confirmation and subsequent analysis were obtained from Sigma (St. Louis, Mo.) or Tocris-Cookson (UK). […]
# as §2
# [3] = tested on: dfmr1 homozygous null progeny; test: Viability of flies on laboratory food (LF) supplemented with glutamate; settings: glutamate added to LF, p<0.005
# Description: FIG. 1B illustrates dfmr1-deficient flies raised on LF are sensitive to supplemented glutamate. Embryos of w^1118, dfmr1^3+/− and dfmr1^3−/− were allowed to develop on LF supplemented with additional glutamate. Relative viability was calculated within each genotype as the percentage of viable adult progeny raised on LF supplemented with glutamate compared to progeny raised on LF alone. (For w^1118 only: anything above 100% was indicated as 100%). (Error bar indicate SEM; *=P<0.005).
# as §1
Structure (SMILES),elevated Futsch protein level in dfmr1 null flies (in words) (Futsch),mushroom body defects of dfmr1 mutant adults (in words) [1],percentage of normal brains (mushroom body) after treatment [1] [%],also measured
NCCCC(=O)O [GABA],did not significantly influence,significantly improved,,
Cc1cccc(C#Cc2ccccc2)n1 [MPEP],significantly reduced,rescued,,"viability of homozygous deficient flies relative to their normal viability on LF ([2]; 10 μM MPEP added to CF): approximately 60%; dfmr1^3−/− viability on CF (in words) ([2]; CF supplemented with MPEP (10 μM), FIG. 1C, P<0.005): improved; pupal development recovered, percentage of the seeded embryos (dfmr1 null embryos): at least 25%"
CC[C@@H]1C(=O)OC[C@@H]1Cc1cncn1C [Pilocarpine nitrate],,,79,recovery of homozygous dFmr1 flies ([2]; 5 microM in JAZMIX food): 88.5%; brain structural abnormality (mushroom body formation) in treated dFmr1 flies (in words) [1]: significant suppression
CN1CC(=O)NC1=N [creatinine],,,85,recovery of homozygous dFmr1 flies ([2]; 40 microM in JAZMIX food): 123.2%
N[C@@H](CCC(=O)O)C(=O)O [glutamate],,,,viability of dfmr1 homozygous null progeny [3]: dose-dependent decline
CC[C@H]1C(=O)OC[C@@H]1Cc1cncn1C [isopilocarpine],completely rescued,significantly improved,,
O=C(O)C1CCCNC1 (centres unmarked) [nipecotic acid],did not significantly influence,significantly improved,73,recovery of homozygous dFmr1 flies ([2]; 40 microM in JAZMIX food): 84%; brain structural abnormality (mushroom body formation) in treated dFmr1 flies (in words) [1]: significant suppression

# Source: US20150174112A1, “COMPOSITIONS FOR TREATING FRAGILE X AND OTHER DISORDERS METHODS OF USE THEREOF, AND SCREENING FOR COMPOUNDS FOR FRAGILE X AND OTHER DISORDERS” (EMORY UNIVERSITY, priority 2005, published 2015)
